ChEMBL document CHEMBL4190273, “Mushroom-Derived Indole Alkaloids” (J Nat Prod, 2017)
≈ marks a conversion by molar mass, not a printed value. *1 amine or outer side, *2 acyl side, *3 side chain or, on linkers, in order; H or OH if unused. Where a SMILES comes first, the peptide text is derived from it. [ ]: non-standard residue; d: D form. X1 = C[C@@H]([C@H](C)OC(=O)CC(C)(C)O)[C@@H](C(=O)[*:2])N(C)[*:1]; X5 = O=C([C@@H]1C[C@@]2(O)c3ccccc3N(O)[C@H]2N1[*:1])[*:2]; X6 = CC(=O)O[C@@H](C)[C@H](C)[C@@H](C(=O)[*:2])N(C)[*:1]; X3 = O=C([C@@H]1C[C@@]2(O)c3ccccc3N[C@H]2N1[*:1])[*:2]; X7 = CC(=O)O[C@@H](C(=O)[*:2])N(C)[*:1]; NMeVal(β-OH) = CN[C@H](C(=O)O)C(C)(C)O; X2 = CC(=O)O[C@H](C(=O)[*:2])N(C)[*:1]; NMeI = CC[C@H](C)[C@H](NC)C(=O)O; X4 = CN([C@H](O)C(=O)[*:2])[*:1]; NMeV = CN[C@H](C(=O)O)C(C)C; Sar = CNCC(=O)O

Legend:
[1] = Toxicity in ip dosed mouse; format: organism-based; conditions: in vivo
[2] = test system: Mycobacterium tuberculosis; assay: Antimycobacterial activity against Mycobacterium tuberculosis H37Ra; format: functional
Staphylococcus aureus = assay: Antibacterial activity against Staphylococcus aureus R-209 assessed as diameter of inhibition zone at 50 ug measured after 24 hrs by agar diffusion method; format: functional; conditions: R-209, 24 h, read-out: DIZ
[3] = test system: Corynebacterium glutamicum; assay: Antibacterial activity against Corynebacterium lilium assessed as diameter of inhibition zone at 50 ug measured after 24 hrs by agar diffusion method; format: functional; conditions: read-out: DIZ
Bacillus subtilis [4] = assay: Antibacterial activity against Bacillus subtilis IAM 1609 assessed as diameter of inhibition zone at 50 ug measured after 24 hrs by agar diffusion method; format: functional; conditions: IAM 1609, 24 h, read-out: DIZ
Bacillus subtilis [5] = assay: Antibacterial activity against Bacillus subtilis IFO-12732 assessed as diameter of inhibition zone at 50 ug measured after 24 hrs by agar diffusion method; format: functional; conditions: IFO-12732, 24 h, read-out: DIZ
Mus musculus = assay: Antithrombotic activity in ICR mouse assessed as inhibition of platelet aggregation at 20 mg/kg, po measured after 1 hr relative to control; format: functional
Meloidogyne incognita = assay: Nematicidal activity against Meloidogyne incognita; format: functional
[6] = test system: Human immunodeficiency virus 1; assay: Antiviral activity against HIV1 3B infected in human C8166 cells assessed as inhibition of virus-induced syncytia formation after 3 days; format: functional, organism-based; conditions: Human immunodeficiency virus 1, 3B, C8166, 72 h
[7] = Therapeutic Index, ratio of CC50 for human C8166 cells to EC50 for HIV1 3B infected in human C8166 cells; format: toxicity, cell-based; conditions: HIV-1 3B infected C8166 cells, read-out: Ratio CC50/EC50

CC[C@H](C)[C@@H]1NC(=O)CNC(=O)[C@@H]2Cc3c([nH]c4cc(O)ccc34)[S+]([O-])C[C@H](NC(=O)CNC1=O)C(=O)N[C@@H](CC(N)=O)C(=O)N1C[C@H](O)C[C@H]1C(=O)N[C@@H]([C@@H](C)[C@@H](O)CO)C(=O)N2 (some centres undefined)
LD50 [1]: 0.2 to 0.5 mg/kg

CC[C@H](C)[C@@H]1NC(=O)CNC(=O)[C@@H]2Cc3c([nH]c4cc(O)ccc34)[S+]([O-])C[C@H](NC(=O)CNC1=O)C(=O)N[C@@H](CC(N)=O)C(=O)N1C[C@H](O)C[C@H]1C(=O)N[C@@H]([C@@H](C)[C@H](C)O)C(=O)N2 (some centres undefined)
LD50 [1]: 0.2 to 0.5 mg/kg

CC[C@H](C)[C@@H]1NC(=O)CNC(=O)[C@@H]2Cc3c([nH]c4cc(O)ccc34)[S+]([O-])C[C@H](NC(=O)CNC1=O)C(=O)N[C@@H](CC(=O)O)C(=O)N1C[C@H](O)C[C@H]1C(=O)N[C@@H]([C@@H](C)[C@@H](O)CO)C(=O)N2 (some centres undefined)
LD50 [1]: 0.2 to 0.5 mg/kg

C=CC(C)(C)c1[nH]c2c(CC=C(C)C)cc(CC=C(C)C)cc2c1C[C@H]1NC(=O)[C@@H](C)NC1=O
MIC [2]: 170 µM (≈ 78.4 µg/mL)

CC[C@@](C)(NC(=O)C(C)(C)NC(=O)[C@@H](NC(=O)[C@H](Cc1c[nH]c2ccccc12)NC(C)=O)C(C)C)C(=O)N[C@@H](C)C(=O)N[C@@H](CCC(N)=O)C(=O)N[C@@H](C)C(=O)NC(C)(C)C(=O)N[C@@H](CO)C(=O)NC(C)(C)C(=O)N[C@@H](C)C(=O)N[C@@H](CC(C)C)C(=O)NC(C)(C)C(=O)N[C@@H](CCC(N)=O)C(=O)N[C@H](CO)CC(C)C
zone of inhibition at 50 µg/disc (Staphylococcus aureus): 13 to 18 mm | zone of inhibition at 50 µg/disc [3]: 13 to 18 mm | zone of inhibition at 50 µg/disc (Bacillus subtilis [4]): 13 to 18 mm | zone of inhibition at 50 µg/disc (Bacillus subtilis [5]): 13 to 18 mm

N[C@@H](Cc1c[nH]c2ccccc12)C(=O)NCC(=O)N[C@@H](CS)C(=O)O (H-Trp-Gly-Cys-OH)
inhibition in vivo at 20 mg/kg (Mus musculus): 83.3%

CC[C@H](C)[C@@H]1NC(=O)[C@H](C(C)C)N(C)C(=O)[C@@H]2C[C@@]3(O)c4ccccc4N(O)[C@H]3N2C(=O)CN(C)C(=O)[C@H]([C@@H](C)CC)N(C)C(=O)[C@H](C(C)C)NC(=O)CN(C)C(=O)[C@H]([C@@H](C)CC)N(C)C(=O)[C@H](C(C)(C)O)N(C)C(=O)CN(C)C(=O)[C@H](C(C)C)N(C)C(=O)[C@H](C(C)C)N(C)C1=O (HELM PEPTIDE1{I.[meV].[meV].[Sar].[CN([C@H](C(=O)[*:2])C(C)(C)O)[*:1]].[meI].[Sar].V.[meI].[Sar].[O=C([C@@H]1C[C@@]2(O)c3ccccc3N(O)[C@H]2N1[*:1])[*:2]].[meV]}$PEPTIDE1,PEPTIDE1,1:R1-12:R2$$$V2.0)
LD90 (Meloidogyne incognita): 2 to 5 µg/mL

CC[C@H](C)[C@@H]1NC(=O)[C@H](C(C)C)N(C)C(=O)[C@@H]2C[C@@]3(O)c4ccccc4N[C@H]3N2C(=O)CN(C)C(=O)[C@H]([C@@H](C)CC)N(C)C(=O)[C@H](C(C)C)NC(=O)CN(C)C(=O)[C@H]([C@@H](C)CC)N(C)C(=O)[C@H](C(C)(C)O)N(C)C(=O)CN(C)C(=O)[C@H](C(C)C)N(C)C(=O)[C@H](C(C)C)N(C)C1=O (HELM PEPTIDE1{I.[meV].[meV].[Sar].[CN([C@H](C(=O)[*:2])C(C)(C)O)[*:1]].[meI].[Sar].V.[meI].[Sar].[O=C([C@@H]1C[C@@]2(O)c3ccccc3N[C@H]2N1[*:1])[*:2]].[meV]}$PEPTIDE1,PEPTIDE1,1:R1-12:R2$$$V2.0)
LD90 (Meloidogyne incognita): 2 to 5 µg/mL

CC[C@H](C)[C@@H]1NC(=O)[C@H](C(C)C)N(C)C(=O)[C@H](Cc2c[nH]c3ccccc23)NC(=O)CN(C)C(=O)[C@H]([C@@H](C)CC)N(C)C(=O)[C@H](C(C)C)NC(=O)CN(C)C(=O)[C@H]([C@@H](C)CC)N(C)C(=O)[C@H](C(C)C)N(C)C(=O)CN(C)C(=O)[C@H](C(C)C)N(C)C(=O)[C@H](C(C)C)N(C)C1=O (HELM PEPTIDE1{I.[meV].[meV].[Sar].[meV].[meI].[Sar].V.[meI].[Sar].W.[meV]}$PEPTIDE1,PEPTIDE1,1:R1-12:R2$$$V2.0)
LD90 (Meloidogyne incognita): 2 to 5 µg/mL

CC(=O)N[C@@H](Cc1c[nH]c2ccccc12)C(=O)N[C@H](C(=O)NC(C)(C)C(=O)NC(C)(C)C(=O)N[C@@H](C)C(=O)N[C@@H](CCC(N)=O)C(=O)N[C@@H](C)C(=O)NC(C)(C)C(=O)N[C@@H](CO)C(=O)NC(C)(C)C(=O)N[C@@H](C)C(=O)N[C@@H](CC(C)C)C(=O)NC(C)(C)C(=O)N[C@@H](CCC(N)=O)C(=O)N[C@H](CO)CC(C)C)C(C)C (HELM PEPTIDE1{[ac].W.V.[Aib].[Aib].A.Q.A.[Aib].S.[Aib].A.L.[Aib].Q.[CC(C)C[C@@H](CO)N[*:1]]}$$$$V2.0)
zone of inhibition at 50 µg/disc (Staphylococcus aureus): 13 to 18 mm | zone of inhibition at 50 µg/disc [3]: 13 to 18 mm | zone of inhibition at 50 µg/disc (Bacillus subtilis [4]): 13 to 18 mm | zone of inhibition at 50 µg/disc (Bacillus subtilis [5]): 13 to 18 mm

CC[C@H](C)[C@@H]1NC(=O)[C@H](C(C)C)N(C)C(=O)[C@@H]2C[C@@]3(O)c4ccccc4N(O)[C@H]3N2C(=O)CN(C)C(=O)[C@H]([C@@H](C)CC)N(C)C(=O)[C@H](C(C)C)NC(=O)[C@@H](O)N(C)C(=O)[C@H]([C@@H](C)CC)N(C)C(=O)[C@H](C(C)(C)O)N(C)C(=O)CN(C)C(=O)[C@H](C(C)C)N(C)C(=O)[C@H](C(C)C)N(C)C1=O (cyclo(I[NMeV][NMeV][Sar][NMeVal(β-OH)][NMeI][X4]V[NMeI][Sar][X5][NMeV]))
LD90 (Meloidogyne incognita): 2 to 5 µg/mL

CC[C@H](C)[C@@H]1NC(=O)[C@H](C(C)C)N(C)C(=O)[C@@H]2C[C@@]3(O)c4ccccc4N[C@H]3N2C(=O)CN(C)C(=O)[C@H]([C@@H](C)CC)N(C)C(=O)[C@H](C(C)C)NC(=O)[C@@H](OC(C)=O)N(C)C(=O)[C@H]([C@@H](C)[C@H](C)OC(=O)CC(C)(C)O)N(C)C(=O)[C@H](C(C)(C)O)N(C)C(=O)CN(C)C(=O)[C@H](C(C)C)N(C)C(=O)[C@H](C(C)C)N(C)C1=O (cyclo(I[NMeV][NMeV][Sar][NMeVal(β-OH)][X1][X2]V[NMeI][Sar][X3][NMeV]))
LD90 (Meloidogyne incognita): 2 to 5 µg/mL

CC[C@H](C)[C@@H]1NC(=O)[C@H](C(C)C)N(C)C(=O)[C@@H]2C[C@@]3(O)c4ccccc4N(O)[C@H]3N2C(=O)CN(C)C(=O)[C@H]([C@@H](C)CC)N(C)C(=O)[C@H](C(C)C)NC(=O)[C@@H](OC(C)=O)N(C)C(=O)[C@H]([C@@H](C)[C@H](C)OC(=O)CC(C)(C)O)N(C)C(=O)[C@H](C(C)(C)O)N(C)C(=O)CN(C)C(=O)[C@H](C(C)C)N(C)C(=O)[C@H](C(C)C)N(C)C1=O (cyclo(I[NMeV][NMeV][Sar][NMeVal(β-OH)][X1][X2]V[NMeI][Sar][X5][NMeV]))
LD90 (Meloidogyne incognita): 2 to 5 µg/mL

CC[C@H](C)[C@@H]1NC(=O)[C@H](C(C)C)N(C)C(=O)[C@@H]2C[C@@]3(O)c4ccccc4N[C@H]3N2C(=O)CN(C)C(=O)[C@H]([C@@H](C)CC)N(C)C(=O)[C@H](C(C)C)NC(=O)[C@@H](O)N(C)C(=O)[C@H]([C@@H](C)[C@H](C)OC(=O)CC(C)(C)O)N(C)C(=O)[C@H](C(C)(C)O)N(C)C(=O)CN(C)C(=O)[C@H](C(C)C)N(C)C(=O)[C@H](C(C)C)N(C)C1=O (cyclo(I[NMeV][NMeV][Sar][NMeVal(β-OH)][X1][X4]V[NMeI][Sar][X3][NMeV]))
LD90 (Meloidogyne incognita): 2 to 5 µg/mL

CC[C@H](C)[C@@H]1NC(=O)[C@H](C(C)C)N(C)C(=O)[C@@H]2C[C@@]3(O)c4ccccc4N(O)[C@H]3N2C(=O)CN(C)C(=O)[C@H]([C@@H](C)CC)N(C)C(=O)[C@H](C(C)C)NC(=O)[C@@H](OC(C)=O)N(C)C(=O)[C@H]([C@@H](C)[C@H](C)OC(C)=O)N(C)C(=O)[C@H](C(C)(C)O)N(C)C(=O)CN(C)C(=O)[C@H](C(C)C)N(C)C(=O)[C@H](C(C)C)N(C)C1=O (cyclo(I[NMeV][NMeV][Sar][NMeVal(β-OH)][X6][X2]V[NMeI][Sar][X5][NMeV]))
LD90 (Meloidogyne incognita): 2 to 5 µg/mL

CC[C@H](C)[C@@H]1NC(=O)[C@H](C(C)C)N(C)C(=O)[C@@H]2C[C@@]3(O)c4ccccc4N[C@H]3N2C(=O)CN(C)C(=O)[C@H]([C@@H](C)CC)N(C)C(=O)[C@H](C(C)C)NC(=O)[C@H](OC(C)=O)N(C)C(=O)[C@H]([C@@H](C)[C@H](C)OC(C)=O)N(C)C(=O)[C@H](C(C)(C)O)N(C)C(=O)CN(C)C(=O)[C@H](C(C)C)N(C)C(=O)[C@H](C(C)C)N(C)C1=O (cyclo(I[NMeV][NMeV][Sar][NMeVal(β-OH)][X6][X7]V[NMeI][Sar][X3][NMeV]))
LD90 (Meloidogyne incognita): 2 to 5 µg/mL

O=C(O)c1cc2c([nH]c3ccccc32)c(-c2ccc(CO)o2)n1 [FLAZINE]
EC50 [6]: 2360 nM | selectivity ratio [7]: 12.1
